Source: patent US11174252B2, “Heterocyclic compounds as kinase inhibitors” (priority 2018, dated 2021)

Legend:
PI3Kδ kinase = PI3Kδ kinase (Homo sapiens (Human), UniProt O00329); test: PI3Kδ kinase ADP-Glo assay (Reaction Biology Corporation); settings: read-out: PI3Kδ IC50
FMS kinase = FMS kinase (Homo sapiens (Human), UniProt P07333); test: LanthaScreen kinase assay (ATP, fluorescent-PolyGT substrate, TR-FRET); assay type: biochemical
CDK6 = CDK6 (Homo sapiens (Human), UniProt Q00534); test: biochemical; assay type: biochemical
MCF-7 = test: Cancer cell proliferation assay, single agent; assay type: cell-based; settings: Homo sapiens, MCF7; MCF-7 cells; treated for 24-168 hours; read-out: IC50 (nM) MCF-7
CDK4 = CDK4 (Homo sapiens (Human), UniProt P11802); test: In vitro kinase inhibition, luminescence (ADP-Glo) with retinoblastoma substrate; assay type: biochemical
DU4475 = test: Cancer cell proliferation assay, single agent; assay type: cell-based; settings: Homo sapiens, DU-4475; DU4475 cells; treated for 24-168 hours; read-out: IC50 (nM) DU4475

Chain of FMS kinase (P07333 20-972): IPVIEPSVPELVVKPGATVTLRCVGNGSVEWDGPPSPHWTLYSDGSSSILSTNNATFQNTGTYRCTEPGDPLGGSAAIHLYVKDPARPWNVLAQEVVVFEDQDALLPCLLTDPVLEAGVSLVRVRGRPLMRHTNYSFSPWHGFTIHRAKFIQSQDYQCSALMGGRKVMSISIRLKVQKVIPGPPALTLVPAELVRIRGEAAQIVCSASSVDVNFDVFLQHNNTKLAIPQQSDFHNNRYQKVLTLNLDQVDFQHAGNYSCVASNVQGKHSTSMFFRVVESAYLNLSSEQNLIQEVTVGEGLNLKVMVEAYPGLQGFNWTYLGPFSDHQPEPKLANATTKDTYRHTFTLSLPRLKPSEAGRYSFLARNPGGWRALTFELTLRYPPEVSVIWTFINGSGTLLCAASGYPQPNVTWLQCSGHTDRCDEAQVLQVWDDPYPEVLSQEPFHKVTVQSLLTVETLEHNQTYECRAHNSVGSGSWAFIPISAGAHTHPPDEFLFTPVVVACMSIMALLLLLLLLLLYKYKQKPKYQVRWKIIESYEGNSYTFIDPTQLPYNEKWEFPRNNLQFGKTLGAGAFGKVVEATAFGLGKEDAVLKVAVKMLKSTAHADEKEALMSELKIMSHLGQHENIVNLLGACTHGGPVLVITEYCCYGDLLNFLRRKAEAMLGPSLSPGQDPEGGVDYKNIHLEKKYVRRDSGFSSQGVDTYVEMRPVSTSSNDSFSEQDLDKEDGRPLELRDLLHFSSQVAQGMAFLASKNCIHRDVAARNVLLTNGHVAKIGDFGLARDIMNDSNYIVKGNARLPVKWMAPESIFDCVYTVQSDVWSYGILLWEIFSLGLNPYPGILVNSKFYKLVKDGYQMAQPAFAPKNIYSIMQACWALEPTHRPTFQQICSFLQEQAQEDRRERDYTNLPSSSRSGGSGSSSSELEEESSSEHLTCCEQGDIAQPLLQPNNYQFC
Chain of CDK4 (P11802 whole entry): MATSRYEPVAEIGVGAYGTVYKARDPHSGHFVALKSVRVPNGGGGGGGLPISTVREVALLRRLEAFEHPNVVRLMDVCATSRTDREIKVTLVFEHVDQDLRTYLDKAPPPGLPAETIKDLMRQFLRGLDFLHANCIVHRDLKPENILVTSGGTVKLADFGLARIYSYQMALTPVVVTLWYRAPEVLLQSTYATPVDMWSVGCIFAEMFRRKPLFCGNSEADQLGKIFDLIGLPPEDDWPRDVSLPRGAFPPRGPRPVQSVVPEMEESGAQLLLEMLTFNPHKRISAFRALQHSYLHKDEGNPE
Chain of CDK4 (P24385 whole entry partner): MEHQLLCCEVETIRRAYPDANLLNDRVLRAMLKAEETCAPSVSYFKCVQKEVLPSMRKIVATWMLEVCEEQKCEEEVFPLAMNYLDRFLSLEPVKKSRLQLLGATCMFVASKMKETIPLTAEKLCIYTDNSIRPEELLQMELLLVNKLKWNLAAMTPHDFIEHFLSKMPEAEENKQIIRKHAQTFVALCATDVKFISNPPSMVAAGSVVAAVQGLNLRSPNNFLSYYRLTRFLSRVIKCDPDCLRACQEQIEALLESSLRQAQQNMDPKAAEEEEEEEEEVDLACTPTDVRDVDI
Chain of PI3Kδ kinase (O00329 whole entry): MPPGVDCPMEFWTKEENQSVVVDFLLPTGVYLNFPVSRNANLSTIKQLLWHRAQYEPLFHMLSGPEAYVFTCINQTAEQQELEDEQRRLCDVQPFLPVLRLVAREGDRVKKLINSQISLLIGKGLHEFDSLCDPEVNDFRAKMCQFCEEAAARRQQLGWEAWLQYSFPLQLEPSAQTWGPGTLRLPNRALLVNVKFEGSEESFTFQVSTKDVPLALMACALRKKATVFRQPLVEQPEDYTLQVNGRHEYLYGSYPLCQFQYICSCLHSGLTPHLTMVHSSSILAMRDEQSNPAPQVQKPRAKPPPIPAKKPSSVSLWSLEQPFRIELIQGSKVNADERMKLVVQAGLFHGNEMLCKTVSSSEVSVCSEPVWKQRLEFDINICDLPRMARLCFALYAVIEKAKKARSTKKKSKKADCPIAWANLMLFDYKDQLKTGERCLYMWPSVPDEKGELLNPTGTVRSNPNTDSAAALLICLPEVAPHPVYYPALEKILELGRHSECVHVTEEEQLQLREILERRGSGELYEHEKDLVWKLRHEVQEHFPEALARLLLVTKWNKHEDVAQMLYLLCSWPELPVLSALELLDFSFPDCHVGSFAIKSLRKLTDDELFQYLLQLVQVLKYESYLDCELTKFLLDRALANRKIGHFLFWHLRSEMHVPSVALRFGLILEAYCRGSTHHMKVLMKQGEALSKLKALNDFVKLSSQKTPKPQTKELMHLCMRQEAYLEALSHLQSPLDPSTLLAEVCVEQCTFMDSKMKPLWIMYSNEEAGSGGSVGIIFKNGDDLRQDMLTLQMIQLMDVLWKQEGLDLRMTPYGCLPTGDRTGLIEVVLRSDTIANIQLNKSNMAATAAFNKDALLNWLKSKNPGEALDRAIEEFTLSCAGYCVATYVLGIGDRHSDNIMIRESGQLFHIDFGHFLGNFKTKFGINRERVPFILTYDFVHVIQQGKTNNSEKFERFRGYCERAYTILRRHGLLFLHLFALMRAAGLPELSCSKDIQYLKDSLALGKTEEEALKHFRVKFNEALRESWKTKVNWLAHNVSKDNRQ
Chain of PI3Kδ kinase (P27986 whole entry partner): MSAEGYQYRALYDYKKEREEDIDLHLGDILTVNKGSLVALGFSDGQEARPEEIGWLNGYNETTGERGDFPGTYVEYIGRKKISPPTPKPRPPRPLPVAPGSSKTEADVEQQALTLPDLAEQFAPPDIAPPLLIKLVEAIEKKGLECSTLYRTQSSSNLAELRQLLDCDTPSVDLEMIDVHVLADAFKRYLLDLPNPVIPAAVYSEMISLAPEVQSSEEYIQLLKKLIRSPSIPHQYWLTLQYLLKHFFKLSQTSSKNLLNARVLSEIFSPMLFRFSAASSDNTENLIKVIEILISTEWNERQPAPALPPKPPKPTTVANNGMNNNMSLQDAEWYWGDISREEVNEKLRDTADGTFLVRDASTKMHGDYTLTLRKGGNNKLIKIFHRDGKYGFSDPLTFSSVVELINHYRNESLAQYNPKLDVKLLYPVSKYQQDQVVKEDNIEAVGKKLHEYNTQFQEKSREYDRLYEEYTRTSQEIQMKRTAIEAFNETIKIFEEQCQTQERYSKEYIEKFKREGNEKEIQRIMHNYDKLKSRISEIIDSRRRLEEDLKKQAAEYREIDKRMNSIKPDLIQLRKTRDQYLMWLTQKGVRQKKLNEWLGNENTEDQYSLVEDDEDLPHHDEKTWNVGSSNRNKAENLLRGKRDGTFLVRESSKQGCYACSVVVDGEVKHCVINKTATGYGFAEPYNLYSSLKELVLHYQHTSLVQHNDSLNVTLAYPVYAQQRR

Row | IC50 (PI3Kδ kinase) | IC50 (FMS kinase) | IC50 (CDK6) | IC50 (MCF-7) | IC50 (CDK4) | IC50 (DU4475) | Compound
1 | 35000 nM | 24 nM | 2 nM | 30 nM | 2 nM | – | CC(C)N1CCOc2c(F)cc(-c3nc(Nc4ccc(N5CCN(C(=O)CN(C)C)CC5)cc4)ncc3F)cc21 [Compound 440, 2-(dimethylamino)-1-(4-(4-((5-fluoro-4-(8-fluoro-4-isopropyl-3,4-dihydro-2H-benzo[b][1,4]oxazin-6-yl)pyrimidin-2-yl)amino)phenyl)piperazin-1-yl)ethan-1-one]
2 | > 50000 nM | 526 nM | 0.6 nM | 95 nM | 1 nM | – | CC(C)N1CCOc2c(F)cc(-c3nc(Nc4ccc(N5CCN(C(=O)CN(C)C)CC5)cn4)ncc3F)cc21 [Compound 441, 2-(dimethylamino)-1-(4-(6-((5-fluoro-4-(8-fluoro-4-isopropyl-3,4-dihydro-2H-benzo[b][1,4]oxazin-6-yl)pyrimidin-2-yl)amino)pyridin-3-yl)piperazin-1-yl)ethan-1-one]
3 | > 50000 nM | 950 nM | 3 nM | 285 nM | 3 nM | – | CC(C)N1CCOc2c(F)cc(-c3nc(Nc4cc(F)c(C5CCNCC5)cn4)ncc3F)cc21 [Compound 443, 5-fluoro-4-(8-fluoro-4-isopropyl-3,4-dihydro-2H-benzo[b][1,4]oxazin-6-yl)-N-(4-fluoro-5-(piperidin-4-yl)pyridin-2-yl)pyrimidin-2-amine]
4 | > 50000 nM | 67 nM | 3.4 nM | 1250 nM | 1.6 nM | – | CC(C)N1CCOc2c(F)cc(-c3nc(Nc4cc5n(n4)CCN(C)C5)ncc3F)cc21 [Compound 444, N-(5-fluoro-4-(8-fluoro-4-isopropyl-3,4-dihydro-2H-benzo[b][1,4]oxazin-6-yl)pyrimidin-2-yl)-5-methyl-4,5,6,7-tetrahydropyrazolo[1,5-a]pyrazin-2-amine]
5 | > 50000 nM | 69 nM | 69 nM | 120 nM | 31 nM | – | CC(C)N1CCOc2c(F)cc(-c3nc(Nc4ccc(N5CCC(O)CC5)c(F)c4)ncc3F)cc21 [Compound 445, 1-(2-fluoro-4-((5-fluoro-4-(8-fluoro-4-isopropyl-3,4-dihydro-2H-benzo[b][1,4]oxazin-6-yl)pyrimidin-2-yl)amino)phenyl)piperidin-4-ol]
6 | > 50000 nM | 214 nM | 0.3 nM | 240 nM | 0.5 nM | – | CC(C)N1CCOc2c(F)cc(-c3nc(Nc4ccc(C5CCN(C(=O)CN(C)C)CC5)cn4)ncc3F)cc21 [Compound 450, 2-(dimethylamino)-1-(4-(6-((5-fluoro-4-(8-fluoro-4-isopropyl-3,4-dihydro-2H-benzo[b][1,4]oxazin-6-yl)pyrimidin-2-yl)amino)pyridin-3-yl)piperidin-1-yl)ethan-1-one]
7 | > 50000 nM | 28 nM | 27 nM | 30 nM | 28 nM | – | CC(C)N1CCOc2c(F)cc(-c3nc(Nc4ccc(C5CCN(C(=O)CN(C)C)CC5)c(F)c4)ncc3F)cc21 [Compound 451, 2-(dimethylamino)-1-(4-(2-fluoro-4-((5-fluoro-4-(8-fluoro-4-isopropyl-3,4-dihydro-2H-benzo[b][1,4]oxazin-6-yl)pyrimidin-2-yl)amino)phenyl)piperidin-1-yl)ethan-1-one]
8 | 589 nM | 8 nM | 45 nM | 50 nM | 20 nM | – | CC(C)N1CCOc2c(F)cc(-c3nc(Nc4cnn(C5CCC(O)CC5)c4)ncc3F)cc21 (stereo not drawn) [Compound 452, 4-(4-((5-fluoro-4-(8-fluoro-4-isopropyl-3,4-dihydro-2H-benzo[b][1,4]oxazin-6-yl)pyrimidin-2-yl)amino)-1H-pyrazol-1-yl)cyclohexan-1-ol]
9 | > 50000 nM | > 5000 nM | 83 nM | 920 nM | 18 nM | – | CC(C)N1CCOc2c(F)cc(-c3nc(Nc4ccc(C5CCN(C(=O)N(C)C)CC5)cn4)ncc3F)cc21 [Compound 454, 4-(6-((5-fluoro-4-(8-fluoro-4-isopropyl-3,4-dihydro-2H-benzo[b][1,4]oxazin-6-yl)pyrimidin-2-yl)amino)pyridin-3-yl)-N,N-dimethylpiperidine-1-carboxamide]
10 | 13100 nM | 1.5 nM | 3 nM | < 4 nM | 4.5 nM | – | CC(C)N1CCOc2c(F)cc(-c3nc(Nc4ccc5c(c4)CN(C(=O)CN(C)C)CC5)ncc3F)cc21 [Compound 455, 2-(dimethylamino)-1-(7-((5-fluoro-4-(8-fluoro-4-isopropyl-3,4-dihydro-2H-benzo[b][1,4]oxazin-6-yl)pyrimidin-2-yl)amino)-3,4-dihydroisoquinolin-2(1H)-yl)ethan-1-one]
11 | 397 nM | 66 nM | 123 nM | 80 nM | 37 nM | – | CC(C)N1CCOc2c(F)cc(-c3nc(Nc4ccc(N5CCS(=O)(=O)CC5)c(F)c4)ncc3F)cc21 [Compound 465, 4-(2-fluoro-4-((5-fluoro-4-(8-fluoro-4-isopropyl-3,4-dihydro-2H-benzo[b][1,4]oxazin-6-yl)pyrimidin-2-yl)amino)phenyl)thiomorpholine 1,1-dioxide]
12 | 1110 nM | 35 nM | 10 nM | 105 nM | 4 nM | – | CN1CCC(c2ccc(Nc3ncc(F)c(-c4cc(F)c5c(c4)N(C)CCO5)n3)cc2F)CC1 [Compound 466, 5-fluoro-N-(3-fluoro-4-(1-methylpiperidin-4-yl)phenyl)-4-(8-fluoro-4-methyl-3,4-dihydro-2H-benzo[b][1,4]oxazin-6-yl)pyrimidin-2-amine]
13 | 3170 nM | 7 nM | – | 30 nM | – | 55 nM | CC(C)N1CCOc2c(F)cc(-c3nc(Nc4ccc(N5CCN6CCCC6C5)c(F)c4)ncc3F)cc21 (stereo not drawn) [Compound 473, 5-fluoro-N-(3-fluoro-4-(hexahydropyrrolo[1,2-a]pyrazin-2(1H)-yl)phenyl)-4-(8-fluoro-4-isopropyl-3,4-dihydro-2H-benzo[b][1,4]oxazin-6-yl)pyrimidin-2-amine]
14 | 1160 nM | 776 nM | – | 300 nM | – | 940 nM | CC(=O)N1CCN(c2ccc(Nc3ncc(F)c(-c4cc(F)c5c(c4)N(C(C)C)CCO5)n3)nc2)CC1 [Compound 474, 1-(4-(6-((5-fluoro-4-(8-fluoro-4-isopropyl-3,4-dihydro-2H-benzo[b][1,4]oxazin-6-yl)pyrimidin-2-yl)amino)pyridin-3-yl)piperazin-1-yl)ethan-1-one]
15 | > 50000 nM | > 5000 nM | – | 1340 nM | – | 2480 nM | CC(C)N1CCOc2c(F)cc(-c3nc(Nc4ccc(N5CCC(C)(O)CC5)cn4)ncc3F)cc21 [Compound 484, 1-(6-((5-fluoro-4-(8-fluoro-4-isopropyl-3,4-dihydro-2H-benzo[b][1,4]oxazin-6-yl)pyrimidin-2-yl)amino)pyridin-3-yl)-4-methylpiperidin-4-ol]
16 | > 50000 nM | 3250 nM | – | 470 nM | – | 555 nM | CC(C)N1CCOc2c(F)cc(-c3nc(Nc4ccc(N5CCC(CO)CC5)cn4)ncc3F)cc21 [Compound 485, (1-(6-((5-fluoro-4-(8-fluoro-4-isopropyl-3,4-dihydro-2H-benzo[b][1,4]oxazin-6-yl)pyrimidin-2-yl)amino)pyridin-3-yl)piperidin-4-yl)methanol]

Row | Compound | IC50 (PI3Kδ kinase) | IC50 (FMS kinase) | IC50 (CDK6) | IC50 (MCF-7) | IC50 (CDK4) | IC50 (DU4475)
17 | CC(C)N1CCOc2c(F)cc(-c3nc(Nc4ccc(N5CCN(C(=O)CN(C)C)CC5)c(F)c4)ncc3F)cc21 [Compound 449, 2-(dimethylamino)-1-(4-(2-fluoro-4-((5-fluoro-4-(8-fluoro-4-isopropyl-3,4-dihydro-2H-benzo[b][1,4]oxazin-6-yl)pyrimidin-2-yl)amino)phenyl)piperazin-1-yl)ethan-1-one] | 4480 nM | 9.5 nM | 0.9 nM | 50 nM | 1.1 nM | –
18 | CC(C)N1CCOc2c(F)cc(-c3nc(Nc4ccc(N5CCN(C(=O)N(C)C)CC5)cn4)ncc3F)cc21 [Compound 453, 4-(6-((5-fluoro-4-(8-fluoro-4-isopropyl-3,4-dihydro-2H-benzo[b][1,4]oxazin-6-yl)pyrimidin-2-yl)amino)pyridin-3-yl)-N,N-dimethylpiperazine-1-carboxamide] | > 50000 nM | > 5000 nM | 30 nM | 695 nM | 12 nM | –
19 | CN1CCOc2c(F)cc(-c3nc(Nc4ccc(N5CCC(N(C)C)CC5)c(F)c4)ncc3F)cc21 [Compound 467, N-(4-(4-(dimethylamino)piperidin-1-yl)-3-fluorophenyl)-5-fluoro-4-(8-fluoro-4-methyl-3,4-dihydro-2H-benzo[b][1,4]oxazin-6-yl)pyrimidin-2-amine] | 2430 nM | 14 nM | 5 nM | 185 nM | 4 nM | –
20 | CCCN1CCOc2c(F)cc(-c3nc(Nc4ccc(N5CCC(N(C)C)CC5)c(F)c4)ncc3F)cc21 [Compound 468, N-(4-(4-(dimethylamino)piperidin-1-yl)-3-fluorophenyl)-5-fluoro-4-(8-fluoro-4-propyl-3,4-dihydro-2H-benzo[b][1,4]oxazin-6-yl)pyrimidin-2-amine] | 3780 nM | 36 nM | 8 nM | 95 nM | 8 nM | –
